Assay results published in PubChem BioAssay AID1259407 (Chemical Carcinogenesis Research Information System (CCRIS), 2018).
Active and inactive are the calls of the source. No rule for the calls is given here.

System: CCRIS mutagenicity, Ames/micronucleus/aberration tests
Assay: CCRIS mutagenicity studies
[1] = Test System: AMES SALMONELLA TYPHIMURIUM, Strain/Indicator: TA98, Metabolic Activation: NONE, Method: STANDARD PLATE
[2] = Test System: AMES SALMONELLA TYPHIMURIUM, Strain/Indicator: TA98, Metabolic Activation: RAT, LIVER, S-9, AROCLOR 1254, Method: STANDARD PLATE
[3] = Test System: AMES SALMONELLA TYPHIMURIUM, Strain/Indicator: TA100, Metabolic Activation: RAT, LIVER, S-9, AROCLOR 1254, Method: STANDARD PLATE

Measured: mutagenic call

CC[C@H](C)[C@H](NC(=O)[C@@H](NC(=O)[C@H](CCC(=O)O)NC(=O)[C@H](CCSC)NC(=O)[C@H](CC(C)C)NC(=O)[C@H](CCCCN)NC(=O)[C@H](CCCNC(=N)N)NC(=O)[C@H](CC(N)=O)NC(=O)[C@H](CO)NC(=O)[C@H](Cc1c[nH]cn1)NC(=O)[C@H](C)NC(=O)[C@H](CCC(N)=O)NC(=O)[C@H](CCC(N)=O)NC(=O)[C@H](C)NC(=O)[C@H](CC(C)C)NC(=O)[C@H](CCC(N)=O)NC(=O)[C@H](CCC(=O)O)NC(=O)[C@H](C)NC(=O)[C@H](CCCNC(=N)N)NC(=O)[C@H](C)NC(=O)[C@H](CCSC)NC(=O)[C@H](CCC(=O)O)NC(=O)[C@H](CC(C)C)NC(=O)[C@@H](NC(=O)[C@H](CCC(=O)O)NC(=O)[C@H](CCCNC(=N)N)NC(=O)[C@H](CC(C)C)NC(=O)[C@H](CC(C)C)NC(=O)[C@H](Cc1c[nH]cn1)NC(=O)[C@H](Cc1ccccc1)NC(=O)[C@@H](NC(=O)[C@H](CC(C)C)NC(=O)[C@H](CC(=O)O)NC(=O)[C@H](CC(C)C)NC(=O)[C@H](CO)NC(=O)[C@@H](NC(=O)[C@@H]1CCCN1C(=O)[C@@H]1CCCN1C(=O)[C@H](CCC(=O)O)NC(=O)[C@H](CCC(=O)O)NC(=O)[C@@H](N)CO)[C@@H](C)CC)[C@@H](C)O)C(C)C)[C@@H](C)CC)C(N)=O
inactive: Test System: AMES SALMONELLA TYPHIMURIUM, Strain/Indicator: TA98, Metabolic Activation: NONE, Method: PREINCUBATION inactive; negative | Test System: AMES SALMONELLA TYPHIMURIUM, Strain/Indicator: TA98, Metabolic Activation: RAT, LIVER, S-9, PHENOBARBITAL AND 5,6-BENZOFLAVONE, Method: PREINCUBATION inactive; negative | Test System: AMES SALMONELLA TYPHIMURIUM, Strain/Indicator: TA100, Metabolic Activation: NONE, Method: PREINCUBATION inactive; negative | Test System: AMES SALMONELLA TYPHIMURIUM, Strain/Indicator: TA100, Metabolic Activation: RAT, LIVER, S-9, PHENOBARBITAL AND 5,6-BENZOFLAVONE, Method: PREINCUBATION inactive; negative | Test System: AMES SALMONELLA TYPHIMURIUM, Strain/Indicator: TA1535, Metabolic Activation: NONE, Method: PREINCUBATION inactive; negative | Test System: AMES SALMONELLA TYPHIMURIUM, Strain/Indicator: TA1535, Metabolic Activation: RAT, LIVER, S-9, PHENOBARBITAL AND 5,6-BENZOFLAVONE, Method: PREINCUBATION inactive; negative | Test System: AMES SALMONELLA TYPHIMURIUM, Strain/Indicator: TA1537, Metabolic Activation: NONE, Method: PREINCUBATION inactive; negative | Test System: AMES SALMONELLA TYPHIMURIUM, Strain/Indicator: TA1537, Metabolic Activation: RAT, LIVER, S-9, PHENOBARBITAL AND 5,6-BENZOFLAVONE, Method: PREINCUBATION inactive; negative | Test System: E. COLI, Strain/Indicator: WP2 UVRA, Metabolic Activation: NONE, Method: PREINCUBATION inactive; negative | Test System: E. COLI, Strain/Indicator: WP2 UVRA, Metabolic Activation: RAT, LIVER, S-9, PHENOBARBITAL AND 5,6-BENZOFLAVONE, Method: PREINCUBATION inactive; negative

CC1(C)[C@@H]2CC[C@@]1(C)[C@@H](O)C2
inactive: Test System: AMES SALMONELLA TYPHIMURIUM, Strain/Indicator: TA97, Metabolic Activation: NONE, Method: PREINCUBATION inactive; negative | Test System: AMES SALMONELLA TYPHIMURIUM, Strain/Indicator: TA97, Metabolic Activation: NONE, Method: PREINCUBATION (20 MIN) inactive; negative | Test System: AMES SALMONELLA TYPHIMURIUM, Strain/Indicator: TA97, Metabolic Activation: RAT, LIVER, S-9, AROCLOR 1254, Method: PREINCUBATION inactive; negative | Test System: AMES SALMONELLA TYPHIMURIUM, Strain/Indicator: TA97, Metabolic Activation: S-9, Method: PREINCUBATION (20 MIN) inactive; negative | Test System: AMES SALMONELLA TYPHIMURIUM, Strain/Indicator: TA98, Metabolic Activation: NONE, Method: PREINCUBATION (20 MIN) inactive; negative | Test System: AMES SALMONELLA TYPHIMURIUM, Strain/Indicator: TA98, Metabolic Activation: S-9, Method: PREINCUBATION (20 MIN) inactive; negative | Test System: AMES SALMONELLA TYPHIMURIUM, Strain/Indicator: TA100, Metabolic Activation: NONE, Method: PREINCUBATION (20 MIN) inactive; negative | Test System: AMES SALMONELLA TYPHIMURIUM, Strain/Indicator: TA100, Metabolic Activation: S-9, Method: PREINCUBATION (20 MIN) inactive; negative | Test System: AMES SALMONELLA TYPHIMURIUM, Strain/Indicator: TA102, Metabolic Activation: NONE, Method: PREINCUBATION inactive; negative | Test System: AMES SALMONELLA TYPHIMURIUM, Strain/Indicator: TA102, Metabolic Activation: RAT, LIVER, S-9, AROCLOR 1254, Method: PREINCUBATION inactive; negative

COc1cc(N)c(OC)cc1N
inactive: [1] inactive; negative | Test System: AMES SALMONELLA TYPHIMURIUM, Strain/Indicator: TA100, Metabolic Activation: NONE, Method: STANDARD PLATE inactive; negative | Test System: AMES SALMONELLA TYPHIMURIUM, Strain/Indicator: TA1535, Metabolic Activation: NONE, Method: STANDARD PLATE inactive; negative | Test System: AMES SALMONELLA TYPHIMURIUM, Strain/Indicator: TA1535, Metabolic Activation: RAT, LIVER, S-9, AROCLOR 1254, Method: STANDARD PLATE inactive; negative | Test System: AMES SALMONELLA TYPHIMURIUM, Strain/Indicator: TA1537, Metabolic Activation: NONE, Method: STANDARD PLATE inactive; negative
active: [2] active; positive | [3] active; positive | Test System: AMES SALMONELLA TYPHIMURIUM, Strain/Indicator: TA1537, Metabolic Activation: RAT, LIVER, S-9, AROCLOR 1254, Method: STANDARD PLATE active; positive | Test System: AMES SALMONELLA TYPHIMURIUM, Strain/Indicator: TA1538, Metabolic Activation: NONE, Method: STANDARD PLATE active; positive | Test System: AMES SALMONELLA TYPHIMURIUM, Strain/Indicator: TA1538, Metabolic Activation: RAT, LIVER, S-9, AROCLOR 1254, Method: STANDARD PLATE active; positive

O=c1ccc2cc3cc4cccc5ccc(c2c1)c3c54
inactive: [1] inactive; negative | [2] inactive; negative
active: [3] active; positive
